A short description of this series: Phase 1 pharmacokinetic assessment, Cycle 1 serum concentrations. In kind it is in vivo, human.

Where a SMILES comes first, the peptide text is derived from it. [ ]: non-standard residue; d: D form. The star is where a group is joined. Dolaproine = CO[C@@H]([C@@H]1CCCN1)[C@@H](C)C(=O)O; Dil = CC[C@H](C)[C@H](NC)[C@@H](CC(=O)O)OC; Doe = c1ccc(C[C@H](N*)c2nccs2)cc1; Aib = CC(C)(N)C(=O)O

Procedure: Pharmacokinetic assessments included quantifying the serum concentrations of T(kK183C+K290C)-vc0101 ADC (measured as conjugated payload), total antibody, and unconjugated payload using validated bioanalytical assays on blood samples collected before treatment and during the study. Specifically, total antibody concentrations were measured using ELISA method, T(kK183C+K290C)-vc0101 ADC concentrations were measured as conjugated payload using a hybrid LC-MS/MS method, and unconjugated payload concentrations will be measured using an LC-MS/MS method. For preliminary PK assessment, mean serum concentration-time profiles of T(kK183C+K290C)-vc0101 ADC were generated for each dose cohort; Noncompartmental PK parameters were estimated from Cycle 1 concentration-time data using nominal sampling time. For T(kK183C+K290C)-vc0101 ADC and total antibody, PK parameters including the maximum plasma concentration (Cmax), time to maximum plasma concentration (Tmax), and area under the plasma concentration versus time curve (AUCinf, AUCτ), clearance (CL), volume of distribution at steady state (Vss), terminal half-life (t1/2), and accumulation ratio (Rac) were calculated. For unconjugated payload, PK parameters including Cmax, Tmax, AUCinf, AUCτ, t1/2, and Rac, were calculated.

In the case of `CC[C@H](C)[C@@H]([C@@H](CC(=O)N1CCC[C@H]1[C@H](OC)[C@@H](C)C(=O)N[C@@H](Cc1ccccc1)c1nccs1)OC)N(C)C(=O)[C@@H](NC(=O)C(C)(C)N)C(C)C` [unconjugated payload, 2-methylalanyl-N-[(3R,4S,5S)-3-methoxy-1-{(2S)-2-[(1R,2R)-1-methoxy-2-methyl-3-oxo-3-{[(1S)-2-phenyl-1-(1,3-thiazol-2-yl)ethyl]amino}propyl]pyrrolidin-1-yl}-5-methyl-1-oxoheptan-4-yl]-N-methyl-L-valinamide] (H-[Aib]V[Dil][Dolaproine]-Doe), the “exposure following IV administration of PF-06804103” value (0.15-5.0 mg/kg, Cycle 1) was “Dose-dependent increases”. For the same compound, the “Serum concentrations compared with ADC” value (Cycle 1, after IV PF-06804103) is “substantially lower than those of ADC”.
